Columns and labels:
Assay type in all cases: functional
[1] = system: MOLT-4; experiment: Growth inhibition of human MOLT4 cells assessed as cell growth at 10 uM after 48 hrs by sulforhodamine B assay relative to control; details: MOLT-4, 48 h, read-out: Activity
[2] = system: SR; experiment: Growth inhibition of human SR cells assessed as cell growth at 10 uM after 48 hrs by sulforhodamine B assay relative to control; details: read-out: Activity
[3] = system: EKVX; experiment: Growth inhibition of human EKVX cells assessed as cell growth at 10 uM after 48 hrs by sulforhodamine B assay relative to control; details: read-out: Activity
[4] = system: NCI-H226; experiment: Growth inhibition of human NCI-H226 cells assessed as cell growth at 10 uM after 48 hrs by sulforhodamine B assay relative to control; details: NCI-H226, 48 h, read-out: Activity
[5] = system: NCI-H322M; experiment: Growth inhibition of human NCI-H322M cells assessed as cell growth at 10 uM after 48 hrs by sulforhodamine B assay relative to control; details: read-out: Activity
[6] = system: HCC 2998; experiment: Growth inhibition of human HCC2998 cells assessed as cell growth at 10 uM after 48 hrs by sulforhodamine B assay relative to control; details: HCC 2998, 48 h, read-out: Activity
[7] = system: HCT-116; experiment: Growth inhibition of human HCT116 cells assessed as cell growth at 10 uM after 48 hrs by sulforhodamine B assay relative to control; details: HCT-116, 48 h, read-out: Activity
[8] = system: SW-620; experiment: Growth inhibition of human SW620 cells assessed as cell growth at 10 uM after 48 hrs by sulforhodamine B assay relative to control; details: SW-620, 48 h, read-out: Activity
[9] = system: SF-268; experiment: Growth inhibition of human SF268 cells assessed as cell growth at 10 uM after 48 hrs by sulforhodamine B assay relative to control; details: SF-268, 48 h, read-out: Activity
[10] = system: SF-295; experiment: Growth inhibition of human SF295 cells assessed as cell growth at 10 uM after 48 hrs by sulforhodamine B assay relative to control; details: SF-295, 48 h, read-out: Activity
[11] = system: SF-539; experiment: Growth inhibition of human SF539 cells assessed as cell growth at 10 uM after 48 hrs by sulforhodamine B assay relative to control; details: SF-539, 48 h, read-out: Activity
[12] = system: SNB-19; experiment: Growth inhibition of human SNB19 cells assessed as cell growth at 10 uM after 48 hrs by sulforhodamine B assay relative to control; details: SNB-19, 48 h, read-out: Activity
[13] = system: M14; experiment: Growth inhibition of human M14 cells assessed as cell growth at 10 uM after 48 hrs by sulforhodamine B assay relative to control; details: M14, 48 h, read-out: Activity
[14] = system: MDA-MB-435; experiment: Growth inhibition of human MDA-MB-435 cells assessed as cell growth at 10 uM after 48 hrs by sulforhodamine B assay relative to control; details: MDA-MB-435, 48 h, read-out: Activity
[15] = system: SK-MEL-2; experiment: Growth inhibition of human SK-MEL-2 cells assessed as cell growth at 10 uM after 48 hrs by sulforhodamine B assay relative to control; details: SK-MEL-2, 48 h, read-out: Activity
[16] = system: UACC-62; experiment: Growth inhibition of human UACC62 cells assessed as cell growth at 10 uM after 48 hrs by sulforhodamine B assay relative to control; details: UACC-62, 48 h, read-out: Activity
[17] = system: OVCAR-8; experiment: Growth inhibition of human OVCAR8 cells assessed as cell growth at 10 uM after 48 hrs by sulforhodamine B assay relative to control; details: OVCAR-8, 48 h, read-out: Activity
[18] = system: NCI/ADR-RES; experiment: Growth inhibition of human NCI/ADR-RES cells assessed as cell growth at 10 uM after 48 hrs by sulforhodamine B assay relative to control; details: read-out: Activity
[19] = system: SK-OV-3; experiment: Growth inhibition of human SKOV3 cells assessed as cell growth at 10 uM after 48 hrs by sulforhodamine B assay relative to control; details: SK-OV-3, 48 h, read-out: Activity
[20] = system: 786-0; experiment: Growth inhibition of human 786-0 cells assessed as cell growth at 10 uM after 48 hrs by sulforhodamine B assay relative to control; details: 786-0, 48 h, read-out: Activity
[21] = system: ACHN; experiment: Growth inhibition of human ACHN cells assessed as cell growth at 10 uM after 48 hrs by sulforhodamine B assay relative to control; details: read-out: Activity
[22] = system: TK-10; experiment: Growth inhibition of human TK10 cells assessed as cell growth at 10 uM after 48 hrs by sulforhodamine B assay relative to control; details: TK-10, 48 h, read-out: Activity
[23] = system: PC-3; experiment: Growth inhibition of human PC3 cells assessed as cell growth at 10 uM after 48 hrs by sulforhodamine B assay relative to control; details: PC-3, 48 h, read-out: Activity
[24] = system: MCF7; experiment: Growth inhibition of human MCF7 cells assessed as cell growth at 10 uM after 48 hrs by sulforhodamine B assay relative to control; details: MCF7, 48 h, read-out: Activity
[25] = system: BT-549; experiment: Growth inhibition of human BT549 cells assessed as cell growth at 10 uM after 48 hrs by sulforhodamine B assay relative to control; details: BT-549, 48 h, read-out: Activity
[26] = system: T47D; experiment: Growth inhibition of human T47D cells assessed as cell growth at 10 uM after 48 hrs by sulforhodamine B assay relative to control; details: read-out: Activity
[27] = system: MDA-MB-468; experiment: Growth inhibition of human MDA-MB-468 cells assessed as cell growth at 10 uM after 48 hrs by sulforhodamine B assay relative to control; details: MDA-MB-468, 48 h, read-out: Activity

SMILES	growth at 10 µM [1]	growth at 10 µM [2]	growth at 10 µM [3]	growth at 10 µM [4]	growth at 10 µM [5]	growth at 10 µM [6]	growth at 10 µM [7]	growth at 10 µM [8]	growth at 10 µM [9]	growth at 10 µM [11]	growth at 10 µM [12]	growth at 10 µM [13]	growth at 10 µM [14]	growth at 10 µM [15]	growth at 10 µM [16]	growth at 10 µM [17]	growth at 10 µM [18]	growth at 10 µM [19]	growth at 10 µM [20]	growth at 10 µM [21]	other results
COc1ccc(Cn2cc(C(=O)N/N=C3/C(=O)Nc4ccc(F)cc43)nn2)cc1	107%	102%	106%	98.5%	102%	99.3%	108%	103%	103%	107%	96.8%	111%	103%	109%	88.6%	98.7%	96.7%	98.9%	97.6%	110%	growth at 10 µM [10]: 95.4%; growth at 10 µM [22]: 102%; growth at 10 µM [23]: 98.4%; growth at 10 µM [24]: 89.5%; growth at 10 µM [25]: 116%; growth at 10 µM [26]: 85.9%; growth at 10 µM [27]: 87.8%
COc1ccc(Cn2cc(C(=O)N/N=C3/C(=O)Nc4ccccc43)nn2)cc1	93.2%	94.8%	104%	86.8%	97.9%	110%	109%	101%	101%	108%	98%	103%	100%	94.8%	96.7%	97.8%	97.2%	113%	106%	107%	growth at 10 µM [10]: 103%; growth at 10 µM [22]: 107%; growth at 10 µM [23]: 103%; growth at 10 µM [24]: 96.5%; growth at 10 µM [25]: 115%; growth at 10 µM [26]: 113%; growth at 10 µM [27]: 99%
COc1ccc(Cn2cc(C(=O)N/N=C3/C(=O)Nc4ccc(Cl)cc43)nn2)cc1	90.6%	80.6%	106%	96.8%	104%	107%	107%	99.7%	98.9%	106%	98.5%	110%	104%	99%	101%	105%	115%	119%	99.8%	107%	growth at 10 µM [10]: 108%; growth at 10 µM [22]: 84.8%; growth at 10 µM [23]: 94.9%; growth at 10 µM [24]: 91.5%; growth at 10 µM [25]: 116%; growth at 10 µM [26]: 101%; growth at 10 µM [27]: 97.2%
COc1ccc(Cn2cc(C(=O)N/N=C3/C(=O)Nc4c(Cl)cccc43)nn2)cc1	84.8%	80.3%	102%	102%	101%	99.3%	91.6%	99.7%	94.7%	108%	93.6%	106%	101%	93.2%	102%	97.4%	105%	113%	106%	111%	growth at 10 µM [10]: 109%; growth at 10 µM [22]: 106%; growth at 10 µM [23]: 96.7%; growth at 10 µM [24]: 84.3%; growth at 10 µM [25]: 111%; growth at 10 µM [26]: 100%; growth at 10 µM [27]: 98.6%
COc1ccc(Cn2cc(C(=O)N/N=C3/C(=O)Nc4ccc(F)c(Cl)c43)nn2)cc1	96.8%	99.5%	108%	93.2%	105%	104%	109%	106%	99.4%	111%	101%	107%	99.3%	95.6%	108%	99.2%	104%	116%	103%	111%	growth at 10 µM [22]: 101%; growth at 10 µM [23]: 105%; growth at 10 µM [24]: 91.8%; growth at 10 µM [25]: 117%; growth at 10 µM [26]: 110%; growth at 10 µM [27]: 108%
COc1ccc(Cn2cc(C(=O)N/N=C3/C(=O)Nc4ccc(Br)cc43)nn2)cc1	80.6%	77.5%	106%	97.5%	102%	98.5%	77%	107%	94.1%	104%	97.3%	111%	101%	98%	97.2%	99.2%	103%	108%	99.6%	110%	growth at 10 µM [10]: 95.8%; growth at 10 µM [22]: 97.6%; growth at 10 µM [23]: 99.8%; growth at 10 µM [24]: 86.3%; growth at 10 µM [25]: 111%; growth at 10 µM [26]: 106%; growth at 10 µM [27]: 96.8%
COc1ccc(Cn2cc(C(=O)N/N=C3/C(=O)Nc4ccc(C)cc43)nn2)cc1	87.8%	86%	108%	93%	102%	99.9%	122%	104%	94.1%	103%	98%	109%	101%	92.9%	94.6%	104%	100%	113%	96.3%	111%	growth at 10 µM [10]: 111%; growth at 10 µM [22]: 94.6%; growth at 10 µM [23]: 97.3%; growth at 10 µM [24]: 89.2%; growth at 10 µM [25]: 112%; growth at 10 µM [26]: 104%; growth at 10 µM [27]: 99.2%
COc1ccc(Cn2cc(C(=O)N/N=C3/C(=O)Nc4c(F)cccc43)nn2)cc1	96.5%	90.3%	107%	91.9%	97.5%	102%	63.7%	92.7%	100%	92.7%	94.2%	101%	102%	93.3%	89.3%	85.5%	96.9%	102%	101%	86.4%	growth at 10 µM [10]: 98%; growth at 10 µM [22]: 96%; growth at 10 µM [23]: 83.3%; growth at 10 µM [24]: 94.1%; growth at 10 µM [25]: 105%; growth at 10 µM [26]: 66.8%; growth at 10 µM [27]: 89.6%

Reference: ChEMBL document CHEMBL4411296, “Design and development of Isatin-triazole hydrazones as potential inhibitors of microtubule affinity-regulating kinase 4 for the therapeutic management of cell proliferation and metastasis” (Eur J Med Chem, 2019)
